Test results reported in patent US20250197377A1, “NOVEL PHARMACEUTICAL SALTS AND POLYMORPHIC FORMS OF AN ERBB AND BTK INHIBITOR” (DIZAL (JIANGSU) PHARMACEUTICAL CO., LTD., priority 2021, published 2025).
Converted amounts (≈) assume the structure as drawn. “And” between values parts separate entries of the source, which are not always exact repeats. Equal values may be shown once.

Legend:
[1] = Form A and Form B inter-conversion study (competitive slurry, XRPD); type: physicochemical
Protocol: Competitive slurry experiments were conducted to evaluate the relative stability of Form A and Form B. Inter-conversion study was performed at room temperature and 50° C. using single and binary solvents listed in the Table 1 below. About 80 mg (100 mg for 50° C.) of Form A and Form B (1:1, w/w) was weighed into sample vials (8 mL) and then 3 mL (2 mL for 50° C.) of solvents were added to each vial. The obtained suspensions were kept stirring for 7 days at room temperature and 50° C., then filtered at specified time. The wet and dried solids were analyzed by XRPD (dried in vacuum oven at 45° C.).
Form B was dominant in tested solvent systems with water activity below 0.15 at room temperature (24˜27° C.). […] Pure Form A and Form B were stable during drying process (50° C., vacuum) for at least 2 days.

[2] = molecular target: T1, EGFR 19Del (Homo sapiens, UniProt P00533, DEL746-750); test: In vitro cell based assay, PD IC50, PC-9
T1 construct: Form A and B in vitro cell based assay; endogenous in cells; host or cells: PC-9

[3] = molecular target: T2, HER2 A775_G776insYVMA (Homo sapiens, UniProt P04626, INS775YVMA); test: In vitro cell based assay, PD IC50, 3T3_YVMA
T2 construct: expressed in transfected cells; host or cells: 3T3 (3T3_YVMA)

[4] = Solubility in bio-relevant media; type: physicochemical; settings: for pH value at 24 h: solubility sample at 24 h
[5] = Water activity study of Form A and Form B (slurry, XRPD); type: physicochemical; settings: 24~27° C. (before dry)
Protocol: To study the effects of water on the stability of Form A and Form B, slurry experiments in the systems with different water activity were carried out. Form A or Form B was suspended separately in different water activity systems (Table 4). […] Residual solids were filtered and then dried in the vacuum oven at 45° C. for 8-24 hours. Dry solids were characterized by XRPD.

[6] = molecular target: T3, EGFR Wildtype (Homo sapiens, UniProt P00533); test: In vitro cell based assay, PD IC50, A431
T3 construct: Form A and B in vitro cell based assay; endogenous in cells; host or cells: A431

[7] = PK study of Form A and Form B in Dog; type: in vivo; settings: 10 mg/kg
[8] = Stability in storage for Form B (XRPD, DSC); type: physicochemical; settings: stored at 2-8° C. for at least 20 d
[9] = tested on: 3T3_YVMA; test: In vitro cell based assay, anti-proliferation GI50, 3T3_YVMA; settings: HER2 A775_G776insYVMA
[10] = tested on: NCI-H1975; test: In vitro cell based assay, anti-proliferation GI50, NCI-H1975; settings: EGFR L858R/T790M
[11] = tested on: PC-9; test: In vitro cell based assay, anti-proliferation GI50, PC-9; settings: EGFR 19Del
[12] = molecular target: T4, EGFR H773_V774insNPH (Homo sapiens, UniProt P00533, INS773NPH); test: In vitro cell based assay, PD IC50, Ba/F3_NPH
T4 construct: expressed in transfected cells; host or cells: Ba/F3 (Ba/F3_NPH)

[13] = Solubility in organic solvents and water; type: physicochemical; settings: r.t.
[14] = PK study of Form A and Form B in Rat; type: in vivo
[15] = Milling study of Form B (grinding and jet milling); type: physicochemical
Protocol: Grinding and jet milling were carried out. About 10 mg Form B was added into mortar and grinded by pestle for 1 min and 2 min. Jet milling of Form B in 500 mg scale was performed. Samples before and after grinding and milling were analyzed by XRPD. • Instrument: Jet mill (Equipment number: PPD-OAJ-1) • Feeding speed: Manual • Feeding pressure: 0.3˜0.6 MPa • Milling One Pressure: 0.4˜0.8 MPa • Milling Two Pressure: 0.4˜0.8 MPa
Grinding and jet milling were carried out to test physical stability of Form B in the milling process. As shown in XRPD results of obtained solids after grinding (FIG. 25), jet milling (FIG. 24), and DSC profile after jet milling (FIG. 26), the crystallinity decreased after grinding, but the crystal form of Form B was unchanged after milling and grinding.

[16] = tested on: Ba/F3_NPH; test: In vitro cell based assay, anti-proliferation GI50, Ba/F3_NPH; settings: EGFR H773_V774insNPH
[17] = tested on: A431; test: In vitro cell based assay, anti-proliferation GI50, A431; settings: EGFR Wildtype
[18] = molecular target: T5, EGFR L858R/T790M (Homo sapiens, UniProt P00533, L858R/T790M); test: In vitro cell based assay, PD IC50, NCI-H1975
T5 construct: Form A and B in vitro cell based assay; endogenous in cells; host or cells: NCI-H1975

[19] = Dynamic moisture sorption analysis (DVS); type: physicochemical
Protocol: DVS was determined using DVS Advantage-1 or Intrinsic (SMS, UK). The sample was tested at a targeted RH of 10 to 90% full cycle in step mode. The analysis was performed in 10% RH increments. Equilibrium:60 min RH (%) measurement points: First cycle: 0, 10, 20, 30, 40, 50, 60, 70, 80, 90. Second cycle: 90, 80, 70, 60, 50, 40, 30, 20, 10, 0.

T2 sequence (P04626 with tags, fused parts or gaps INS775YVMA): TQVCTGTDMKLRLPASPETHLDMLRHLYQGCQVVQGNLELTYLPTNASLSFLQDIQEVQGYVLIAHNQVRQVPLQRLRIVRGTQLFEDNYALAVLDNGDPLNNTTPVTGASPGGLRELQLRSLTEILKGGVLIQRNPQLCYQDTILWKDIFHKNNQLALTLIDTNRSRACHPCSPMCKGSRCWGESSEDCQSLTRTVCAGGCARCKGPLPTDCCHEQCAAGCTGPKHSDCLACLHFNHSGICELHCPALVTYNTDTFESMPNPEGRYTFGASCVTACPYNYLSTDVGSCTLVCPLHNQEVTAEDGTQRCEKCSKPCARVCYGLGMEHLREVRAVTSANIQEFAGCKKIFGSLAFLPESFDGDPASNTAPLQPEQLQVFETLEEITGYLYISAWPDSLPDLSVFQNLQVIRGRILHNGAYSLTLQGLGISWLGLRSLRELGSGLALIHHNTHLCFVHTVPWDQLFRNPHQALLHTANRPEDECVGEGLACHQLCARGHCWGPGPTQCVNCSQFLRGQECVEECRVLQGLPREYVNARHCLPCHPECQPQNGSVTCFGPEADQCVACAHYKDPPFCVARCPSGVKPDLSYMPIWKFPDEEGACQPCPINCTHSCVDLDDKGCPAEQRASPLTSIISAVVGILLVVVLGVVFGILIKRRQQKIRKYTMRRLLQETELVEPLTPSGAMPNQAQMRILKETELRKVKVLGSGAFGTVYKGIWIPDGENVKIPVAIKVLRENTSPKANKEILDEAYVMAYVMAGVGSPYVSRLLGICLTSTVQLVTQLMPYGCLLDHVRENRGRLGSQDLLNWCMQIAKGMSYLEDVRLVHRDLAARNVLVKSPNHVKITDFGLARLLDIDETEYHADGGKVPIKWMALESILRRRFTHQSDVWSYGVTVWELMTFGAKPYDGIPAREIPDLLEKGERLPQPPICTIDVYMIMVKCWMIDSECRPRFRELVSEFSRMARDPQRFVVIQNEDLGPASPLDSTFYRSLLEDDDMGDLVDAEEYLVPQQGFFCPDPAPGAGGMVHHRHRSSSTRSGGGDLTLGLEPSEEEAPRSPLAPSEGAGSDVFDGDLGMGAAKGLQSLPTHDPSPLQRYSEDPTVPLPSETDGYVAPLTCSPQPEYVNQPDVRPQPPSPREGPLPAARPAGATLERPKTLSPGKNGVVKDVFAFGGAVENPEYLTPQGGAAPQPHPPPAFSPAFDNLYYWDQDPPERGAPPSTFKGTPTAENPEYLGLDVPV
T5 sequence (P00533 25-1210 T790M/L858R): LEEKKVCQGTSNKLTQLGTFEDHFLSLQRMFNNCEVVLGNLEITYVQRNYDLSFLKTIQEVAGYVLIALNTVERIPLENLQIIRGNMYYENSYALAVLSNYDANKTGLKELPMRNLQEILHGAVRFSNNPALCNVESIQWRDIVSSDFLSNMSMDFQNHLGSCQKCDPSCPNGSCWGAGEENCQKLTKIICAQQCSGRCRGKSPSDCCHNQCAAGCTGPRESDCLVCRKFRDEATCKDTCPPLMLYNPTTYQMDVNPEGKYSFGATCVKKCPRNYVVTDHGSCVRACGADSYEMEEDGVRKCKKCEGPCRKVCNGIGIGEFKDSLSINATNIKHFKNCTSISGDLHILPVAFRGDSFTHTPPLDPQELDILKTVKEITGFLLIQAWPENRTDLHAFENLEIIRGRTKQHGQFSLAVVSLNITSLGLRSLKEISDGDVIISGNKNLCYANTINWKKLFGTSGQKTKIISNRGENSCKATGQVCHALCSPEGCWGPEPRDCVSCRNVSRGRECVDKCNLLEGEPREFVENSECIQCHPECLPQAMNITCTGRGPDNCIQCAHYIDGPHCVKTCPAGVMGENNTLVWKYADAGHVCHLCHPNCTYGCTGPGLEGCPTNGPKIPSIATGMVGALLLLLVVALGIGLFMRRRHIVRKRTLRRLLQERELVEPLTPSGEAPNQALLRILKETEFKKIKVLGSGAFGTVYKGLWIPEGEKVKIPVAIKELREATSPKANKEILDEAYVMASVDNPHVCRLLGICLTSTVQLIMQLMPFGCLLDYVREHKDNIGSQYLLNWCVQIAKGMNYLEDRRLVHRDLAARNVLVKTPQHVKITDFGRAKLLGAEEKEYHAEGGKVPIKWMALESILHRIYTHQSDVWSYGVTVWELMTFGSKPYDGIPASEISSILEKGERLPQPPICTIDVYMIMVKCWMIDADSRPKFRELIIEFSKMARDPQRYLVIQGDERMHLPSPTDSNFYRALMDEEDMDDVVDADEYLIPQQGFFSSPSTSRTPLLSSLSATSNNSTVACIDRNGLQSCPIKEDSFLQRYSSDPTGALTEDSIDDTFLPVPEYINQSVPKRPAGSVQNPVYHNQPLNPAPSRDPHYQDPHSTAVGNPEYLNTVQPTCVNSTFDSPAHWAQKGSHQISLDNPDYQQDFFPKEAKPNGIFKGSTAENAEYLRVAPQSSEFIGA
T4 sequence (P00533 with tags, fused parts or gaps INS773NPH): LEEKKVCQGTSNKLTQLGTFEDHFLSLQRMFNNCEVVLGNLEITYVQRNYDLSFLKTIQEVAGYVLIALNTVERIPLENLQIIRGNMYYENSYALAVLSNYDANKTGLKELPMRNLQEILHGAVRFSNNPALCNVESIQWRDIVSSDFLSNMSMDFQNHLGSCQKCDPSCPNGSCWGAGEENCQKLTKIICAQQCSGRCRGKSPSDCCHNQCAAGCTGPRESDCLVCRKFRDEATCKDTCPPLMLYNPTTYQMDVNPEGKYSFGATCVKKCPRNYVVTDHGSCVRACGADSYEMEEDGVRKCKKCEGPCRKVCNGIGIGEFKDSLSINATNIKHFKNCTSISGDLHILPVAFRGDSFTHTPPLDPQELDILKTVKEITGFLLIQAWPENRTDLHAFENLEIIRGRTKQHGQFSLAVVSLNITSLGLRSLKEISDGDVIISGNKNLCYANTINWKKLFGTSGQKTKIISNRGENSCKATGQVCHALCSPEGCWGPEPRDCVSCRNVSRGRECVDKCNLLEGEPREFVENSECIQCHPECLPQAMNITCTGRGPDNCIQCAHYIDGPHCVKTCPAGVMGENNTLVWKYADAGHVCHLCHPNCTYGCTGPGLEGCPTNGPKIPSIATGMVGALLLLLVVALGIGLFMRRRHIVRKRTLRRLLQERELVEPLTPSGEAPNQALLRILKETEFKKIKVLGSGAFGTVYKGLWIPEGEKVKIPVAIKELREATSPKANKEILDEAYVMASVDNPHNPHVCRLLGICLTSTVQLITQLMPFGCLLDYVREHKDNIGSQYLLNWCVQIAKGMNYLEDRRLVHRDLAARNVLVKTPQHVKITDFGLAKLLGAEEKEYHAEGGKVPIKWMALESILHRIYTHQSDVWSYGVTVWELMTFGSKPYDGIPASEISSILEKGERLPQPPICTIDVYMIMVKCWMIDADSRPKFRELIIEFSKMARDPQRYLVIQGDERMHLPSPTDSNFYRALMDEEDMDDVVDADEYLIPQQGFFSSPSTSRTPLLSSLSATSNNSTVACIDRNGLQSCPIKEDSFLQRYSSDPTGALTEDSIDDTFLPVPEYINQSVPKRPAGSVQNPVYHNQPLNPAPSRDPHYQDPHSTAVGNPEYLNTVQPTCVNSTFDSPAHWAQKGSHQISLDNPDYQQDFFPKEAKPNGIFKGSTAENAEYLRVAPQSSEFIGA
T3 sequence (P00533 25-1210): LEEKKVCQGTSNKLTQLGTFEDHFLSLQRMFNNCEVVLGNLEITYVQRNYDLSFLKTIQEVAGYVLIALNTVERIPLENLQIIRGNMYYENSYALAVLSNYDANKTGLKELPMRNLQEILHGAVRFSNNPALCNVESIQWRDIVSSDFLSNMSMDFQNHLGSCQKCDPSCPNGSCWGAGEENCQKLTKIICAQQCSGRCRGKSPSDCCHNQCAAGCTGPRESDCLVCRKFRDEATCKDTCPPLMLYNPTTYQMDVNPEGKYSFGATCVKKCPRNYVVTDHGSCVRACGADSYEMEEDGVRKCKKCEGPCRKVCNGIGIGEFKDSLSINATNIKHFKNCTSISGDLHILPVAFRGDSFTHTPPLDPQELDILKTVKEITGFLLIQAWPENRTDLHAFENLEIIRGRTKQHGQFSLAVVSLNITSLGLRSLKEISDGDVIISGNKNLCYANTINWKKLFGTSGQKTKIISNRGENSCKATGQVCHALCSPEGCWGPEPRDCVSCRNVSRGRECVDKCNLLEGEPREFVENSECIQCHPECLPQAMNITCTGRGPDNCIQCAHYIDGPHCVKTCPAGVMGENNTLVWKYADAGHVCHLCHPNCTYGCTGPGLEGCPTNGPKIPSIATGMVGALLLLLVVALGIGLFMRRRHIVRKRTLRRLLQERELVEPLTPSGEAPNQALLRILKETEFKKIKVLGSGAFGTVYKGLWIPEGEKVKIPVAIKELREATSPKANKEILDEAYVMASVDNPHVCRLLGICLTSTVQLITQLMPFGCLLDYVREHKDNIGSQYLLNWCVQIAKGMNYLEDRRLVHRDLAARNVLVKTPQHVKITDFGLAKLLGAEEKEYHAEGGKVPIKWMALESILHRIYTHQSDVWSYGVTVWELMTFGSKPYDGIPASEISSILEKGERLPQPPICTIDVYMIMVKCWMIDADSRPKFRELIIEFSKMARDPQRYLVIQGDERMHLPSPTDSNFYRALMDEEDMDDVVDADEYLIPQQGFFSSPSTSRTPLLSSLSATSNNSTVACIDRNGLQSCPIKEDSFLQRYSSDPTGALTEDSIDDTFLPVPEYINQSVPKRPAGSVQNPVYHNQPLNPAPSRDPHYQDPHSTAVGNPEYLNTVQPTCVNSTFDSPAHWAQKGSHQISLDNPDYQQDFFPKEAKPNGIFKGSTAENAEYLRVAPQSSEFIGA

SMILES: C=CC(=O)Nc1cc(Nc2nccc(Nc3cc(Cl)c(F)cc3C(C)(C)O)n2)c(OC)cc1N1CC[C@@H](N(C)C)C1 [Form B, (R)-N-(5-((4-((5-chloro-4-fluoro-2-(2-hydroxypropan-2-yl)phenyl)amino)pyrimidin-2-yl)amino)-2-(3-(dimethylamino)pyrrolidin-1-yl)-4-methoxyphenyl)acrylamide]
- Stability of pure form during drying process ([1]; 50° C., vacuum, at least 2 days): stable
- Relative stability of Form A and Form B in competitive slurry ([1]; 50° C., all the tested solvent systems except pure water): more stable than Form A
- Relative stability of Form A and Form B in competitive slurry ([1]; tested solvent systems with water activity below 0.15, room temperature (24~27° C.)): dominant
- IC50 [2]: 2.29 nM
- IC50 [3]: 3.26 nM
- solubility at 0.5 h ([4]; FaSSIF): 150 µg/mL (≈ 257 µM)
- solubility at 2 h ([4]; FaSSIF, 2 h): 160 µg/mL (≈ 274 µM)
- solubility at 24 h ([4]; FaSSIF, 24 h): 240 µg/mL (≈ 411 µM)
- pH value at 24 h ([4]; FaSSIF): 6.43
- solubility at 0.5 h ([4]; FeSSIF): 3180 µg/mL (≈ 5440 µM)
- Solubility ([4]; FeSSIF, 2 h): 2290 µg/mL (≈ 3920 µM)
- solubility at 24 h ([4]; FeSSIF, 24 h): 11200 µg/mL (≈ 19200 µM)
- pH value at 24 h ([4]; FeSSIF): 5.50
- solubility at 0.5 h ([4]; SGF, simulated gastric fluid): 23500 µg/mL (≈ 40300 µM)
- solubility at 2 h ([4]; SGF, simulated gastric fluid, 2 h): 24200 µg/mL (≈ 41400 µM)
- solubility at 24 h ([4]; SGF, simulated gastric fluid, 24 h): 25800 µg/mL (≈ 44100 µM)
- pH value at 24 h ([4]; SGF): 5.15
- solubility at 0.5 h ([4]; SIF, fassgf or other biorelevant): 18 µg/mL (≈ 30.8 µM)
- solubility at 2 h ([4]; SIF, fassgf or other biorelevant, 2 h): 25 µg/mL (≈ 42.8 µM)
- Solubility ([4]; SIF, 24 h): 520 µg/mL (≈ 890 µM)
- pH value at 24 h ([4]; SIF): 6.67
- XRPD results of slurry in different water activity solvent ([5]; 0% water/acetone, water activity 0, 1 d): Form B
- XRPD results of slurry in different water activity solvent ([5]; 0% water/acetone, water activity 0, 3 d): Form B
- XRPD results of slurry in different water activity solvent ([5]; 0% water/acetone, water activity 0, 7 d): Form B
- XRPD results of slurry in different water activity solvent ([5]; 3% water/acetone, water activity 0.312, 3 d): Form B
- XRPD results of slurry in different water activity solvent ([5]; 3% water/acetone, water activity 0.312, 7 d): Form B
- XRPD results of slurry in different water activity solvent ([5]; 30% water/acetone, water activity 0.747, 1 d): Form B
- XRPD results of slurry in different water activity solvent ([5]; 30% water/acetone, water activity 0.747, 3 d): Form B
- XRPD results of slurry in different water activity solvent ([5]; 30% water/acetone, water activity 0.747, 7 d): Form B
- XRPD results of slurry in different water activity solvent ([5]; water, 7 d): Form B
- IC50 [6]: 54.1 nM
- AUC0-24 h ([7]; Female (individual animals)): 3.14 hr*μM/(mg/kg) and 3.75 hr*μM/(mg/kg)
- AUC0-24 h ([7]; Male (individual animals)): 2.88 hr*μM/(mg/kg) and 5.29 hr*μM/(mg/kg)
- Form change after storage (XRPD, DSC) [8]: no form change observed
- GI50 [9]: 44.5 nM
- GI50 [10]: 1.45 nM
- GI50 [11]: 4.23 nM
- IC50 [12]: 35.2 nM
- Solubility ([13]; Acetone): S < 5.88 mg/ml
- Solubility ([13]; Acetonitrile): S < 0.97 mg/ml
- Solubility ([13]; Ethyl acetate): S < 1.06 mg/ml
- Solubility ([13]; Isopropanol): S ~ 4.677 mg/ml
- Solubility ([13]; MTBE): S < 1.57 mg/ml
- Solubility ([13]; MeOH): 24.00 < S mg/ml
- Solubility ([13]; THF): 12.70 < S mg/ml
- Solubility ([13]; water): S < 2.73 mg/ml
- Mean AUC0~48 ([14]; 25 mg/kg): 2678 ng·h/mL
- Mean Cmax ([14]; 25 mg/kg): 299 ng/mL
- Mean t1/2 ([14]; 25 mg/kg): 4.1 h
- Median Tmax ([14]; 25 mg/kg): 8.0 h
- Mean AUC0~48 ([14]; 75 mg/kg): 8433 ng·h/mL
- Mean Cmax ([14]; 75 mg/kg): 672 ng/mL
- Mean t1/2 ([14]; 75 mg/kg): 5.8 h
- Median Tmax ([14]; 75 mg/kg): 4.0 h
- Crystallinity after grinding (XRPD) ([15]; grinding): decreased
- Crystal form after milling and grinding (XRPD, DSC) ([15]; grinding 1 min and 2 min, jet milling): unchanged
- GI50 [16]: 66.3 nM
- GI50 [17]: 45.9 nM
- IC50 [18]: 2.07 nM
- DVS (ΔW %, 80% RH) [19]: 0.04%
